Assay [1] relates to in vitro-derived neurectoderm (EBM7). The assay can be described thus: Immunohistochemistry, TH: dopaminergic neuron formation from in vitro-derived neurectoderm (EBM7). The conditions noted are these: EBM7s, 10 ng/ml NGF days 7-10, 200 μM dopamine days 10-14 where present, day 14. It is filed as cell-based. The protocol: FIG. 2: The culture of in vitro-derived neurectoderm in the presence of NGF and dopamine increases dopaminergic neuron formation. EBM^7s were seeded for 3 days in 50% DMEM/F12, 10 ng/ml FGF2, 0.1% ITSS, 1% FCS, and 10 ng/ml NGF, and for an additional 4 days in DMEM/F12, 0.1% ITSS, 200 μM ascorbic acid, with or without 200 μM dopamine. The resulting EBMs were analysed by immunohistochemistry using an anti-TH antibody. Positive staining for TH (dark regions) indicated dopaminergic neurons. A, EBM^7s cultured in the absence of NGF and dopamine; B, EBM^7s cultured in the presence of NGF; C, EBM^7s cultured in the presence of NGF and dopamine.
(§1) EBs were grown in the presence of the conditioned medium MEDII for 7 days (EBM^7) as previously described in International Patent Application PCT/AU99/00265 to applicants, the entire disclosure of which is incorporated herein by reference.
ES cells were seeded at a density of 1×10^5 cells/cm^2 In suspension culture in bacterial petri dishes in DMEM containing 50% MEDII. DMEM is defined as Dulbecco's Modified Eagles Medium (Gibco BRL), pH 7.4, containing high glucose and supplemented with 10% foetal calf serum (FCS; Commonwealth Serum Laboratories), 40 μg/ml gentamycin, 1 mM L-glutamine, 0.1 mM β-mercaptoethanol (β-ME). […]
(§2) Antibody staining for NF200 and tyrosine hydroxylase (TH) was detected by alkaline phoaphatase activity. […]

The test system is the same in assay [2]. The assay can be described thus: Immunohistochemistry, NF200: neuron formation from in vitro-derived neurectoderm (EBM7). It counts as cell-based. The conditions noted are these: EBM7s grown in the presence of 10 ng/ml NGF vs absence; anti-NF200 antibody, day 14. On the procedure:
FIG. 1: The culture of in vitro-derived neurectoderm in the presence of NGF increases neuron formation. EBM^7s were seeded for 3 days in 50% DMEM/F12, 10 ng/ml FGF2, 0.1% ITSS, 1% FCS, in the presence or absence of 10 ng/ml NGF, and for an additional 4 days in 50% DMEM/F12, 0.1% ITSS. The resulting EBMs were analysed by immunohistochemistry using an anti-NF200 antibody. Positive staining for NF200 (dark regions) indicated neurons. A, EBM^7s cultured in the absence of NGF; B, EBM^7s cultured in the presence of NGF.
as §1
ES cells were seeded at a density of 1×10^5 cells/cm^2 In suspension culture in bacterial petri dishes in DMEM containing 50% MEDII. DMEM is defined as Dulbecco's Modified Eagles Medium (Gibco BRL), pH 7.4, containing high glucose and supplemented with 10% foetal calf serum (FCS; Commonwealth Serum Laboratories), 40 μg/ml gentamycin, 1 mM L-glutamine, 0.1 mM β-mercaptoethanol (β-ME). The resulting cell aggregates (EBMs) were split 1:2 after 2 days and seeded into fresh DMEM containing 50% MEDII. […]
as §2

For `NCCc1ccc(O)c(O)c1` [dopamine, reference compound], in assay [1], the “TH positive cells (anti-TH antibody staining)” value was “significant increase”.
For the compound “NGF: growth factor from the neural growth factor (NGF) family, used at 10 ng/ml”, the “proportion of cells staining positive for NF200” value in assay [2] was “significantly increased”. Further, the “TH positive cells (anti-TH antibody staining)” value in assay [1] is given as “only a small proportion”.
